Assay [1] has as its target T1, Alpha-2A adrenergic receptor (Homo sapiens, UniProt P08913).
T1 sequence (P08913 whole entry): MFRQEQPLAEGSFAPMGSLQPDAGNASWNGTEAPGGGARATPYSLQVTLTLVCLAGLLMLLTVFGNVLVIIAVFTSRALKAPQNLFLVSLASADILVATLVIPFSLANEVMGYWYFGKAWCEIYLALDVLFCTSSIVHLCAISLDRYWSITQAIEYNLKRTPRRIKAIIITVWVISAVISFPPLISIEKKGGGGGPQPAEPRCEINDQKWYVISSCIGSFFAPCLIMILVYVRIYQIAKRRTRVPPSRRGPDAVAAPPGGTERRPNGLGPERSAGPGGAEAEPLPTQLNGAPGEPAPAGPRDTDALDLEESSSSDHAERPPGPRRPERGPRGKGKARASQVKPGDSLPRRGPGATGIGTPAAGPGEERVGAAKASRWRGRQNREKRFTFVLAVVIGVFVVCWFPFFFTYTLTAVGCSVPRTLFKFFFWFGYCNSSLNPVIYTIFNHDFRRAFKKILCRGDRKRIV
In words: […] inhibitory effect against Alpha-2A adrenergic receptor.

Assay [2] concerns the target T2, Alpha-1B adrenergic receptor (Homo sapiens, UniProt P35368).
T2 sequence (P35368 whole entry): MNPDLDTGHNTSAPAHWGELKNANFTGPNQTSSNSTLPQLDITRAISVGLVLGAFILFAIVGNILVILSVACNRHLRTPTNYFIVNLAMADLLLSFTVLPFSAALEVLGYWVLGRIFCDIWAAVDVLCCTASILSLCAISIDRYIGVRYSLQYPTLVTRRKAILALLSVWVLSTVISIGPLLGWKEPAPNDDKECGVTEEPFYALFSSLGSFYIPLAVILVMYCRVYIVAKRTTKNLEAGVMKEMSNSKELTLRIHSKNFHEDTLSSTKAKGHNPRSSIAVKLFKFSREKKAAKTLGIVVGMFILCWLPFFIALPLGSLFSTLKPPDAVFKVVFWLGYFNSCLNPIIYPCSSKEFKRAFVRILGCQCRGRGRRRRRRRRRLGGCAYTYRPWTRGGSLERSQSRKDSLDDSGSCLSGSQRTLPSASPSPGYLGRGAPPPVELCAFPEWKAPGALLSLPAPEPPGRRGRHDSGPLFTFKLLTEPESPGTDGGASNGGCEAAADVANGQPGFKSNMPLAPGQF
In words: In vitro antagonism at Alpha-1B adrenergic receptor. The class given is functional.

Assay [3] has as its target T3, Alpha-2C adrenergic receptor (Homo sapiens, UniProt P18825).
T3 sequence (P18825 whole entry): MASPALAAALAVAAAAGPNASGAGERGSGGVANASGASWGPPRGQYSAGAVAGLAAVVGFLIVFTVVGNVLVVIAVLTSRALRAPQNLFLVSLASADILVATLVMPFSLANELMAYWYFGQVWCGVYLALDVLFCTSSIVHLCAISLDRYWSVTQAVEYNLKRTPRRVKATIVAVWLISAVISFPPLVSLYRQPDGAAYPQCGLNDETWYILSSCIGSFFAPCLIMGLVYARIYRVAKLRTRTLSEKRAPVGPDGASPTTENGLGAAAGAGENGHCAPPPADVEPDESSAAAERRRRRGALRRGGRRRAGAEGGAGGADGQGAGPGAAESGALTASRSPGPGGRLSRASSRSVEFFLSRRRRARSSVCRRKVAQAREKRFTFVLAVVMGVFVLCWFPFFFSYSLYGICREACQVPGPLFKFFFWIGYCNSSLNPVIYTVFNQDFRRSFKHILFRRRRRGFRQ
Kind of assay: […] inhibitory effect against Alpha-2C adrenergic receptor.

Assay [4] has as its target T4, Alpha-2B adrenergic receptor (Homo sapiens, UniProt P18089).
T4 sequence (P18089 whole entry): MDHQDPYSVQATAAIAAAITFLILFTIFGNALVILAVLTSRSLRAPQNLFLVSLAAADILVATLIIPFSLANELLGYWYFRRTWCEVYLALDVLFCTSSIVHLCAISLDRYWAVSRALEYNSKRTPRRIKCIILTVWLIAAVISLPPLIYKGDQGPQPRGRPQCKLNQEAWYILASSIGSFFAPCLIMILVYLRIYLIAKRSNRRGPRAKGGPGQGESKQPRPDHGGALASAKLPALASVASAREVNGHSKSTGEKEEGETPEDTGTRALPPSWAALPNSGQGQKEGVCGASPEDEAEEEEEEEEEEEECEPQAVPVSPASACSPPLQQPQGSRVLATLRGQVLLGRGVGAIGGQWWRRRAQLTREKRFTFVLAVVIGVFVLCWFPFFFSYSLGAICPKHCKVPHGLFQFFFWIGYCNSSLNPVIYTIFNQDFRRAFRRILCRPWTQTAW
In words: […] inhibitory effect against alpha-2b Adrenergic receptor.

Assay [5] addresses T5, Alpha-1D adrenergic receptor (Homo sapiens, UniProt P25100).
T5 sequence (P25100 whole entry): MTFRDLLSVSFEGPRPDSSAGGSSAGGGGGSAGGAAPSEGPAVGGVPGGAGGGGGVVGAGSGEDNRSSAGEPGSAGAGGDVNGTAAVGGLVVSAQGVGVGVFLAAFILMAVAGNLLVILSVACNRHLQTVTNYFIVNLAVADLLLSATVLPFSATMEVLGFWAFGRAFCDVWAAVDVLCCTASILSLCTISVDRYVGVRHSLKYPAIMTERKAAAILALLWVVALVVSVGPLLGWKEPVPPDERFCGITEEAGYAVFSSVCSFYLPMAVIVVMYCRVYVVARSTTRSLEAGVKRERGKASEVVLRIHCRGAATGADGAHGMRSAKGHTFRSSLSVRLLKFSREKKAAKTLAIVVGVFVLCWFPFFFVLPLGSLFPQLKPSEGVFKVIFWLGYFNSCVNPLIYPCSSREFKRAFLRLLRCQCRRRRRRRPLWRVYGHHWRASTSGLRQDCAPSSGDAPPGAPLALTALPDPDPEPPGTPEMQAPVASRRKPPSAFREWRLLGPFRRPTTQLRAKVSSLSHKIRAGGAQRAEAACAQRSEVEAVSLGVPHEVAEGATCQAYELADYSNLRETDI
In words: In vitro antagonism at Alpha-1D adrenergic receptor. The class given is functional.

Assay [6] has as its target T6, Alpha-1A adrenergic receptor (Homo sapiens, UniProt P35348).
T6 sequence (P35348 whole entry): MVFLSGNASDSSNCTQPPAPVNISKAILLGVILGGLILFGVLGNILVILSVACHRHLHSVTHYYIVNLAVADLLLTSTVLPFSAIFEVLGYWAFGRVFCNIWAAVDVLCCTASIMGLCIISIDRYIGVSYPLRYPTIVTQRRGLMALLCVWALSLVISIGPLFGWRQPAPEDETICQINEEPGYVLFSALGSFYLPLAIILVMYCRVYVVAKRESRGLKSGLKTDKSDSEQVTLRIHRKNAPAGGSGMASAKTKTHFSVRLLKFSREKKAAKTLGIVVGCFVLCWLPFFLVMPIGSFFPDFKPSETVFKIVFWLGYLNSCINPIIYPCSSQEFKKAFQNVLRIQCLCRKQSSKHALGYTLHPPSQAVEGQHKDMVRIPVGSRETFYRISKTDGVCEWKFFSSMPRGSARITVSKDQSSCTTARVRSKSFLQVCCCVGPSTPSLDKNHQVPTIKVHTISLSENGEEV
Kind of assay: In vitro antagonism at Alpha-1A adrenergic receptor. The class given is functional.

The next assay has as its target Histamine H1 receptor (Homo sapiens, UniProt P35367). Kind of assay: Selectivity screen against human Histamine H1 receptor.
The species named for a further assay is Rattus norvegicus. In words: Dose required to inhibit the prostate contractile response by 50% after challenge with selective alpha-1a agonist A61603 and duration of action was 1.5h in an in situ rat prostate model. The class given is functional, Prostate gland.

Sequence of Histamine H1 receptor (P35367 whole entry): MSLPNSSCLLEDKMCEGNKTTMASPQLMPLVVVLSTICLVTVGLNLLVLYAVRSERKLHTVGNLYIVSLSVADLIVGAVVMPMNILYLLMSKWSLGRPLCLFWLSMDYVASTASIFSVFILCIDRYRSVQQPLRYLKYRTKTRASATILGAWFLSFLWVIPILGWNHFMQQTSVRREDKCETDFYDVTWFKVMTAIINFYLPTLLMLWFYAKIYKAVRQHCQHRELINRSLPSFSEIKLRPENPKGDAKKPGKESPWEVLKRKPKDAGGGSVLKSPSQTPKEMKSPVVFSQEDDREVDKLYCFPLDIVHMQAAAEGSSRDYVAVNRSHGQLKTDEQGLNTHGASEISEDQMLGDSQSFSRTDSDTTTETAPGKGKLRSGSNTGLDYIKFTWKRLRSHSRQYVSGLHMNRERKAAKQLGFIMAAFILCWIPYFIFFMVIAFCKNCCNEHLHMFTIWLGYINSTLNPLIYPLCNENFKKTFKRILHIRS

In the case of `CC1=C(C(=O)NCCCN2CCC(C#N)(c3ccc(F)cc3F)CC2)[C@@H](c2ccc(F)c(F)c2)CC(=O)N1`, the inhibition constant (Ki) in assay [1] stood at 1970 nM; in assay [2] it was 805 nM; in assay [3], 2000 nM; in assay [4], 531 nM; in assay [5], 588 nM; in assay [6], 1 nM. This compound registered a Ki on Histamine H1 receptor of 108 nM. For the same compound, the AD50 in the assay filed under Rattus norvegicus stood at 17 µg/kg.

These data come from ChEMBL document CHEMBL1133242, “Selective alpha1a adrenergic receptor antagonists based on 4-aryl-3,4-dihydropyridine-2-ones” (Bioorg Med Chem Lett, 2000).
